Twelve compounds from patent US9029405B2, “5-(biphenyl-4-yl)-3-phenyl-1,2,4-oxadiazolyl derivatives as ligands on the sphingosine 1-phosphate(SIP)receptors” (Merck Serono S.A., priority 2010, dated 2015) can be followed below.

Structures can show the parent of a compound that is named as a salt. Where two headings read alike, the source gives them in different places.

Experiment [1] concerns the target S1P3 (Homo sapiens, UniProt Q99500). As to the kind of experiment: Receptor binding assay, [33P]sphingosine 1-phosphate competition, membranes of CHO cells expressing S1P3. Particulars: 96 well plate; read-out: S1P3 Binding Ki [M] (96 well plate). Here is the method:
(§1) Membranes were prepared from CHO cells expressing S1P1 or S1P3 for use in ligand binding studies. Cells were suspended in 50 mM TRIS, pH 7.4, 2 mM EDTA, 250 mM Sucrose (buffer A) and 1× Complete protease inhibitor cocktail (Roche), and disrupted at 4° C. by N2 decompression using a cell disruption bomb (Parr Instrument). Following centrifugation at 1000 RPM for 10 min at 4° C., the supernatant was diluted (2×) in buffer A and centrifuged again at 19000 RPM for 75 min at 4° C. The pellet was then suspended in 10 mM HEPES, pH 7.4, 1 mM EDTA, 250 mM Sucrose (Buffer B), and 1× Complete EDTA-free protease inhibitor cocktail and homogenized using a potter. Membranes were flash frozen in liquid N2 and stored at −80° C.
(§2) [33P]sphingosine 1-phosphate (3000 Ci/mmol; American Radiolabeled Chemicals, Inc.) was added to test compounds in 20% DMSO by competition. Membranes and WGA SPA beads (GE Healthcare) were added to give a final volume of 100 μl in 96-well plates or 50 μl in 384-well plates with assay concentrations of 30 pM or 15 pM [33P]sphingosine 1-phosphate (respectively for S1P1 or S1P3), 50 mM HEPES, pH 7.5, 5 mM MgCl2, 100 mM NaCl, 0.4% fatty acid-free BSA, 1-5 μg/well of proteins in 96-well plates vs 0.6-1 μg/well of proteins in 384-well plates and 100 μg/well of WGA SPA beads in 96-well plates vs 75 μg/well of WGA SPA beads in 384-well plates. Binding was performed for 60 min at RT on a shaker and bound radioactivity was measured on a PerkinElmer 1450 MicroBeta counter. Triplicate samples were averaged and normalized as percentage of inhibition relative to total binding (only DMSO in well) and non specific binding (1000-fold excess of unlabeled S1P). Binding data were analyzed using the GraphPad Prism program or Genedata software.
(§3) The “potency” or the “activity” of the compounds is determined by the Ki values as evaluated in one of the above described binding assay, 96 or 384 well plates.

Experiment [2] deals with T1, S1P1 (Homo sapiens, UniProt P21453). Briefly: Receptor binding assay, [33P]sphingosine 1-phosphate competition, membranes of CHO cells expressing S1P1. Here is the method: as §1, §2, §3
Target sequence in this assay (P21453 whole entry, species assumed): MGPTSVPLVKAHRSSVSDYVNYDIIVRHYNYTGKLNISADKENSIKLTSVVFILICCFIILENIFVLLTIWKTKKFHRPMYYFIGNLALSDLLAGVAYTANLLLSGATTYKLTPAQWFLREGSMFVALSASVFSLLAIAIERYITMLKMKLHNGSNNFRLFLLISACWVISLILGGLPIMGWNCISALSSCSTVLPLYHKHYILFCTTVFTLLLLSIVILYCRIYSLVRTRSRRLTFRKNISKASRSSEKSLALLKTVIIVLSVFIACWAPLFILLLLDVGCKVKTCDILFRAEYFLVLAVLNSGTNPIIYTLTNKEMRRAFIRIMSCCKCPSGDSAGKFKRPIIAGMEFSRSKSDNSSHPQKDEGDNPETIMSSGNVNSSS
The target in experiment [3] is T1, S1P1. Briefly: S1P1 internalization assay in S1P1-U2OS cells (cell imaging). Also noted: host or cells: U2OS (human bone osteosarcoma epithelial cells). The note with it: U2OS cells expressing S1P1-EGFP, 384-well format. It is filed as cell-based. Here is the method:
Cellular Functional Assays: Internalization of Sphinqosine-1-phosphate Receptor 1 (S1P1) in a Human Cell Line (U2OS) in a 384-Well Format Using a Cell Imaging Analysis.
The S1P1 internalization assay was performed in 384 well plates (Corning 384 black with clear bottom 3712) using S1P1-U2OS cells from BioImage (C039A), a human epithelial cell line (Human Bone Osteosarcoma Epithelial Cells). These cells expressed the human S1P1 Receptor fused to the green fluorescent protein (EGFP). A standard CMV promoter (cytomegalovirus promoter) controls the expression of S1P1-EGFP and continuous expression was maintained by addition of geneticin to the culture medium.
S1P1 Receptor desensitization induced the internalization of the membrane-localized S1P-EGFP fusion protein to endosomes, which can be monitored by cell imaging analysis.
The cells are plated in low serum medium (Dulbecco's Modified Eagle Medium (DMEM) with Glutamax-1 and high glucose, 1% Penicillin/Streptomycin, 1% Fetal Calf Serum (FCS), 0.5 mg/ml Geneticin) overnight.
The next day, S1P1-U2OS cells are incubated in 20 μl serum free medium (DMEM with Glutamax-1 and high glucose, 0.1% of fatty-acid free Bovin Serum Albumin (BSA), 10 mM, N′-2-Hydroxyethylpiperazine-N′-2 ethanesulphonic acid (HEPES) 1M) for 2 hours at 37° C./5% CO2. The cells are then treated with 4 μl compounds/agonists (6×/3% DMSO) for a total volume of 24 μl, and plates are incubated for 1 hour at 37° C./5% CO2.
S1P1-U2OS cells are fixed with 25 μl Paraformaldehyde 8% and stained with Hoechst 33345 dye (1:1000) for 20 minutes.
They were then washed 3 times with Phosphate Buffered Saline (PBS) and plates are sealed. The internalization of the receptor S1P1-EGFP is measured on Cellomics by calculating the “spot count per object” (“object” corresponds to nuclear and “spot” corresponds to S1P1-EGFP receptor). Internalization data were observed thanks to vHCS View and analyzed using Genedata® software.
Target sequence in this assay (P21453 whole entry): as the sequence (P21453 whole entry, species assumed) above

Where [4] appears, read: 96 well plate, read-out: S1P1 Binding Ki [M] (96 well plate).
Where [5] appears, read: 384 well plate, read-out: S1P1 Binding Ki [M] (384 well plate).

Sequence of S1P3 (Q99500 whole entry, species assumed): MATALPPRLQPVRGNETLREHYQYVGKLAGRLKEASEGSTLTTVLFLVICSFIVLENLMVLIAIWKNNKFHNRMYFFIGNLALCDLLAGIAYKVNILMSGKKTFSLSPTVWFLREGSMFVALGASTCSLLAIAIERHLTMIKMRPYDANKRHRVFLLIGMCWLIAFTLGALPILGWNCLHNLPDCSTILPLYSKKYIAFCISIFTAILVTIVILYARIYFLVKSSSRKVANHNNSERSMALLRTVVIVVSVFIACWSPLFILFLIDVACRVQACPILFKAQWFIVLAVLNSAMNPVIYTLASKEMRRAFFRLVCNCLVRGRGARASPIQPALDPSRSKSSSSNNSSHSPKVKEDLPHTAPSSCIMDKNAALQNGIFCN

Usually Ki stands for the dissociation constant of the complex between target and ligand, obtained from inhibition or displacement. As for `CNCc1cccc(-c2noc(-c3ccc(-c4ccccc4C)c(C(F)(F)F)c3)n2)c1` [Example M2], the Ki in experiment [1] turned out to be 2.4e-08 M; in experiment [2] (setting [4]) it was 5.6e-10 M.
Usually EC50 stands for the concentration giving half of the maximal effect. High values mean a less potent agent, low ones a more potent agent. As for `CCCC(NCc1ccc(-c2noc(-c3ccc(-c4ccccc4C)c(C(F)(F)F)c3)n2)cc1)C(=O)O` (stereo not drawn) [Example 62], the Ki in experiment [2] (setting [5]) was 3.81e-09 M. In experiment [3], the response was half-maximal at 73.3 nM (EC50).
The matching figures for `Cc1ccccc1-c1ccc(-c2nc(-c3cccc(CN(C)C(C)(CO)C(=O)O)c3)no2)cc1C(F)(F)F` (stereo not drawn) [Example 84]: 4.25e-09 M and 84.6 nM.
The corresponding values for `CCN(Cc1cccc(-c2noc(-c3ccc(-c4ccccc4C)c(C(F)(F)F)c3)n2)c1)C(C)(C)C(=O)O` [Example 88, 2-(Ethyl-{3-[5-(2′-methyl-2-trifluoromethyl-biphenyl-4-yl)-[1,2,4]oxadiazol-3-yl]-benzyl}-amino)-2-methyl-propionic acid] are 2.85e-09 M and 69.7 nM.
The matching figures for `Cc1cc(-c2nc(-c3ccc([C@H](C)N[C@@H](C)C(=O)O)cc3)no2)ccc1-c1ccccc1C(F)(F)F` (racemic) [Example 24, N-[(1S)-1-(4-{5-[2-methyl-2′-(trifluoromethyl)biphenyl-4-yl]-1,2,4-oxadiazol-3-yl}phenyl)ethyl]-L-alanine, hydrochloride salt and N-[(1R)-1-(4-{5-[2-methyl-2′-(trifluoromethyl)biphenyl-4-yl]-1,2,4-oxadiazol-3-yl}phenyl)ethyl]-D-alanine, hydrochloride salt]: 4.29e-09 M and 89.4 nM.
Consider `Cc1ccccc1-c1ccc(-c2nc(-c3ccc([C@@H](CO)N[C@H](C)C(=O)O)cc3)no2)cc1C(F)(F)F` (single isomer, unassigned) [Example 99, hydrochloride salt], for which the Ki was found to be 2.3e-06 M in experiment [1] and 8.85e-10 M in experiment [2] (setting [4]).
For `COCC(NCc1cccc(-c2noc(-c3ccc(-c4ccccc4C)c(C(F)(F)F)c3)n2)c1)C(=O)O` (stereo not drawn) [Example 76, 3-Methoxy-2-{3-[5-(2′-methyl-2-trifluoromethyl-biphenyl-4-yl)-[1,2,4]oxadiazol-3-yl]-benzylamino}-propionic acid], the Ki in experiment [2] (setting [5]) is 1.5e-08 M. In addition, the midpoint of the response in experiment [3], the EC50, lay at 133 nM.
The matching figures for `CC[C@H](N[C@H](C)c1ccc(-c2noc(-c3ccc(-c4ccccc4C)c(C(F)(F)F)c3)n2)cc1)C(=O)O` [Example 10, (2S)-2-{[(1R)-1-(4-{5-[2′-methyl-2-(trifluoromethyl)biphenyl-4-yl]-1,2,4-oxadiazol-3-yl}phenyl)ethyl]amino}butanoic acid, hydrochloride salt]: 1.94e-08 M and 187 nM.
For `Cc1ccccc1-c1ccc(-c2nc(-c3ccc([C@H](CO)N[C@H](C)C(=O)O)cc3)no2)cc1C(F)(F)F` (single isomer, unassigned) [Example 100, hydrochloride salt], the inhibition constant Ki in experiment [1] came out at 2.45e-06 M; in experiment [2] (setting [4]) it was 1.09e-09 M.
The corresponding values for `Cc1ccccc1-c1ccc(-c2nc(-c3ccc([C@@H](C)N)cc3)no2)cc1C(F)(F)F` [Example M1] are 1.45e-06 M and 4.05e-10 M.
The corresponding values for `COCc1cc(-c2nc(-c3ccc([C@H](C)N(C)CC(=O)O)cc3)no2)ccc1-c1ccccc1C` [Example 98, N-[(1S)-1-(4-{5-[2-(methoxymethyl)-2′-methylbiphenyl-4-yl]-1,2,4-oxadiazol-3-yl}phenyl)ethyl]-N-methylglycine, hydrochloride salt] are ≥ 2e-05 M and 6.2e-10 M.
The matching figures for `COCc1cc(-c2nc(-c3ccc([C@@H](C)N(C)CC(=O)O)cc3)no2)ccc1-c1ccccc1C` [Example 97, N-[(1R)-1-(4-{5-[2-(methoxymethyl)-2′-methylbiphenyl-4-yl]-1,2,4-oxadiazol-3-yl}phenyl)ethyl]-N-methylglycine, hydrochloride salt]: 4.8e-07 M and 7.8e-10 M.
